Results from patent EP1909102A1, “Method for subgroup analysis in subjects having or being suspected of having inflammatory disease, use of anti-p38mapk antibodies, kits and their use” (c-a-i-r biosciences GmbH, priority 2006, dated 2008).

Key:
p38MAPKα = p38MAPKα (Homo sapiens, UniProt Q16539); conditions: read-out: IC50 for p38MAPKα; disclosed in WO 2004/110990; cited from earlier work
[1] = system: patients with moderate to severe rheumatoid arthritis; test: VeRA trial of p38MAPK inhibitor in rheumatoid arthritis patients; type: in vivo; conditions: according to a Monte Carlo simulation of the distribution of the effects
Description: It has been claimed that p38MAPK inhibitors were of benefit in treating a large variety of disorders. […] In the VeRA trial, which was conducted to evaluate treatment effects in terms of characteristic manifestations of the disease such as tender joints, swollen joints, morning stiffness and disease activity in a cohort of 315 patients with moderate to severe rheumatoid arthritis, approximately 40 % of patients were responsive to treatment with the p38MAPK inhibitor VX-702, compared to a placebo effect of about 30 %, arguing for a biochemical net response rate of about 28 % according to a Monte Carlo simulation of the distribution of the effects. So far, no explanation for this evident dichotomy between responders and non-responders has been proposed yet.

[2] = system: patients with moderate to severe rheumatoid arthritis; conditions: VeRA trial, cohort of 315 patients with moderate to severe rheumatoid arthritis; placebo effect about 30 %; cited from earlier work

Sequence of p38MAPKα (Q16539 whole entry): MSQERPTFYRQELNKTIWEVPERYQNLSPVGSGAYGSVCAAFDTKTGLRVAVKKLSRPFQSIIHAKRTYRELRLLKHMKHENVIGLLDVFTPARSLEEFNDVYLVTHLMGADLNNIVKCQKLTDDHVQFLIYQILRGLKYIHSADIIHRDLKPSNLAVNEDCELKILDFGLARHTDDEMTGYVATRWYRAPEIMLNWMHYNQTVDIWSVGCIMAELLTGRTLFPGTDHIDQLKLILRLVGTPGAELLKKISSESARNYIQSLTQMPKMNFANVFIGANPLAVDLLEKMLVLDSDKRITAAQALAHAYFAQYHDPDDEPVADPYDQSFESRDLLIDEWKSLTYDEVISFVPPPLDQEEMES

| Structure (SMILES) | IC50 (p38MAPKα) [nM] | biochemical net response rate [1] | patients responsive to treatment [2] |
| --- | --- | --- | --- |
| Fc1ccc(-c2nc3occn3c2-c2ccnc(NC3CC3)n2)cc1 [4-(4-fluorophenyl)-5-(2-[cyclopropyl-amino]-pyrimidyl-4-yl)-imidazooxazole] | 0.44 |  |  |
| NC(=O)c1ccc(N(C(N)=O)c2c(F)cccc2F)nc1-c1ccc(F)cc1F [VX-702] |  | about 28% | approximately 40% |
